From paper PMC7588913, “A Peptide Found in Human Serum, Derived from the C-Terminus of Albumin, Shows Antifungal Activity In Vitro and In Vivo” (Microorganisms, 2020)
Where two headings read alike, the source gives them in different places. Where a SMILES comes first, the peptide text is derived from it.

How the values were obtained:
C. albicans SC5314 = test: Colony forming unit (CFU) candidacidal assay; assay type: cell-based, Candida albicans; conditions: 100 μg/mL vs reference strain C. albicans SC5314, CFU assay
Description: The fungicidal activity of the selected peptides was evaluated in vitro by a previously described colony forming unit (CFU) assay. All peptides were preliminarily tested at the concentration of 100 μg/mL vs. the reference strain C. albicans SC5314. […] After incubation at 37 °C for 6 h in the presence or absence (control growth) of the peptides, fungal cell suspensions (approximately 500 cells/100 μL of distilled water) were spread on Sabouraud Dextrose agar plates. After incubation at 30 °C for 48–72 h, CFUs were enumerated. Each assay was carried out in triplicate and at least 2 independent experiments were performed for each condition. EC50 values were calculated by nonlinear regression analysis using Graph Pad Prism 4.01 software, San Diego, CA, USA. Time kinetics of K13L-mediated killing against the reference C. albicans strain was determined by CFU assays, as described above, after incubation of yeast cells for 30 min, 1, 2, 4 and 6 h with K13L at different concentrations.

LLC-MK2 cells = assay type: cell-based, Rhesus monkey
Description: (§1) The hemolytic and cytotoxic activity of the selected peptides (25, 50 and 100 μM) was evaluated as previously described. For the evaluation of hemolytic activity, peptides were added to human erythrocytes (blood group 0 Rh+, final concentration, 2.5% v/v) and hemoglobin release was estimated after 30 and 120 min incubation by measuring the absorbance of the supernatant at 540 nm. Erythrocytes suspended in phosphate buffered saline (PBS) and Triton 1% were the controls for zero (blank) and 100% hemolysis, respectively. Cytotoxicity against Rhesus monkey kidney epithelial cells (LLC-MK2 line) treated with peptides for 24 h was assessed after resazurin addition by measuring fluorescence intensity at 572 nm. Cells in medium without peptide served as control (100% viability). Each assay was carried out in duplicate and at least 2 independent replicates were performed for each experiment.
(§2) Data are reported as the mean ± SD. Statistical significance was assessed by t test, p < 0.05 was considered significant.

Galleria mellonella = test: In vivo toxicity in Galleria mellonella larvae; conditions: K13L 33.33 mg/kg into the haemocoel, 37 °C, monitored 9 days, Mantel–Cox log-rank test
Description: The potential therapeutic activity of K13L was evaluated by the G. mellonella model of experimental candidiasis, according to a previously described procedure. To preliminarily evaluate in vivo toxicity, a solution of K13L (33.33 mg/kg) was inoculated directly into the haemocoel, via the last left pro-leg, in larvae at their final instar stage (body weight, 300 ± 20 mg, 10 μL/larva). Larvae inoculated with 10 μL of saline solution and untouched larvae served as controls. All animals were incubated at 37 °C in the dark and monitored daily for survival for 9 days. For the evaluation of therapeutic activity, larvae (16/group) were challenged with C. albicans SC5314 (5 × 10^5 yeast cells/larva, 10 μL) via the last left pro-leg. A solution of K13L (16.66 mg/kg,) or saline (control) was injected 60 min later, via the last right proleg (10 μL). Larvae were monitored daily for 9 days after infection. The log rank (Mantel–Cox) test was used to compare survival curves by Graph Pad Prism software.

human erythrocytes = assay type: cell-based
Description: as §1, §2

| SMILES | Fungicidal activity in preliminary assay (C. albicans SC5314) | Cell Viability (%) (LLC-MK2 cells; 25 µM) | Cell Viability (%) (LLC-MK2 cells; 50 µM) | Cell Viability (%) (LLC-MK2 cells; 100 µM) | Survival of larvae vs saline-inoculated larvae (in vivo toxicity) (Galleria mellonella) | Hemolysis (%) (human erythrocytes; 25 µM) | Hemolysis (%) (human erythrocytes; 50 µM) |
| --- | --- | --- | --- | --- | --- | --- | --- |
| CC(C)C[C@H](NC(=O)[C@H](Cc1ccccc1)NC(=O)[C@H](CC(=O)O)NC(=O)CNC(=O)[C@H](CCC(=O)O)NC(=O)CNC(=O)[C@H](CO)NC(=O)[C@@H](N)CC(=O)O)C(=O)N[C@@H](C)C(=O)N[C@@H](CCC(=O)O)C(=O)NCC(=O)NCC(=O)NCC(=O)N[C@H](C(=O)N[C@@H](CCCNC(=N)N)C(=O)O)C(C)C [Peptide D15R] (H-DSGEGDFLAEGGGVR-OH; N-terminus and C-terminus assumed) | no activity | 101.32 ± 1.92% | 101.25 ± 0.19% | 103.00 ± 1.49% | – | – | – |
| CC(C)C[C@H](NC(=O)CNC(=O)[C@H](CC(C)C)NC(=O)[C@H](C)NC(=O)[C@H](C)NC(=O)[C@H](CCC(N)=O)NC(=O)[C@H](CO)NC(=O)[C@H](C)NC(=O)[C@H](C)NC(=O)[C@@H](NC(=O)[C@H](CC(C)C)NC(=O)[C@H](CCCCN)NC(=O)[C@@H](N)CCCCN)C(C)C)C(=O)O [Peptide K13L] (H-KKLVAASQAALGL-OH) | – | 105.95 ± 1.47% | 105.04 ± 0.20% | 101.26 ± 0.38% | No significant difference in survival | – | – |
| C[C@H](NC(=O)[C@H](CCC(=O)O)NC(=O)[C@H](CO)NC(=O)CNC(=O)[C@H](C)NC(=O)[C@H](CCC(=O)O)NC(=O)[C@@H](N)CC(=O)O)C(=O)N[C@@H](CC(=O)O)C(=O)N[C@@H](Cc1c[nH]cn1)C(=O)N[C@@H](CCC(=O)O)C(=O)NCC(=O)N[C@H](C(=O)N[C@@H](Cc1c[nH]cn1)C(=O)N[C@@H](CO)C(=O)N[C@H](C(=O)O)[C@@H](C)O)[C@@H](C)O [Peptide D15T] (H-DEAGSEADHEGTHST-OH; N-terminus and C-terminus assumed) | no activity | 108.50 ± 0.92% | 107.55 ± 1.48% | 108.50 ± 5.15% | – | 0.00% | 0.00% |
| CC(C)[C@H](NC(=O)[C@@H](NC(=O)[C@H](Cc1ccccc1)NC(=O)CNC(=O)[C@H](CCC(=O)O)NC(=O)[C@H](CC(N)=O)NC(=O)[C@H](CCC(=O)O)NC(=O)[C@H](CCCCN)NC(=O)[C@@H](NC(=O)[C@H](CCC(=O)O)NC(=O)[C@H](CCC(=O)O)NC(=O)[C@@H](N)CO)[C@@H](C)O)[C@@H](C)O)C(=O)N[C@H](C(=O)N[C@@H](C)C(=O)N[C@@H](CCC(=O)O)C(=O)NCC(=O)N[C@@H](CCCCN)C(=O)O)[C@@H](C)O [Peptide S17K] (H-SEETKENEGFTVTAEGK-OH; N-terminus and C-terminus assumed) | no activity | 103.47 ± 2.00% | 102.69 ± 1.37% | 101.73 ± 1.82% | – | 0.00% | – |
| CC[C@H](C)[C@H](NC(=O)[C@H](CCCCN)NC(=O)[C@H](CO)NC(=O)CNC(=O)[C@H](CC(C)C)NC(=O)[C@H](CO)NC(=O)[C@H](Cc1ccccc1)NC(=O)[C@H](CCC(N)=O)NC(=O)[C@H](CC(C)C)NC(=O)[C@H](CCC(=O)O)NC(=O)[C@H](CCC(=O)O)NC(=O)[C@H](CCC(=O)O)NC(=O)[C@H](CC(C)C)NC(=O)CN)C(=O)N[C@@H](CC(N)=O)C(=O)N[C@H](C(=O)N[C@@H](CCCCN)C(=O)O)C(C)C [Peptide G17K] (H-GLEEELQFSLGSKINVK-OH) | – | 99.07 ± 1.57% | 99.73 ± 0.45% | 99.07 ± 1.57% | – | 0.00% | – |
